In PubChem BioAssay (NCI):
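Following 48 hours of exposure in 96-well plates, responses at five concentrations were used to interpolate endpoints linearly. Abbreviation: GI50, concentration required for 50% inhibition of growth. Definition used: TGI = concentration required for complete inhibition of growth.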

Legend:
Assay in all cases: inhibition of tumour cell growth, NCI panel, 48 h
[1] = tested on: 786-0 renal
[2] = tested on: A498 renal
[3] = tested on: A549 NSCLC
[4] = tested on: ACHN renal
[5] = tested on: BT-549 breast
[6] = tested on: CAKI-1 renal
[7] = tested on: CCRF-CEM leukemia
[8] = tested on: COLO 205 colon
[9] = tested on: DU-145 prostate
[10] = tested on: HCC-2998 colon
[11] = tested on: HCT-116 colon
[12] = tested on: HCT-15 colon
[13] = tested on: HL-60(TB) leukemia
[14] = tested on: HOP-62 NSCLC
[15] = tested on: HOP-92 NSCLC
[16] = tested on: HS 578T breast
[17] = tested on: HT29 colon
[18] = tested on: IGROV1 ovarian
[19] = tested on: K-562 leukemia
[20] = tested on: KM12 colon
[21] = tested on: LOX IMVI melanoma
[22] = tested on: M14 melanoma
[23] = tested on: MALME-3M melanoma
[24] = tested on: MCF7 breast
[25] = tested on: MDA-MB-231 breast
[26] = tested on: MDA-MB-435
[27] = tested on: MOLT-4 leukemia
[28] = tested on: NCI-H226 lung
[29] = tested on: NCI-H23 lung
[30] = tested on: NCI-H460 lung
[31] = tested on: NCI-H522 lung
[32] = tested on: NCI/ADR-RES ovarian
[33] = tested on: OVCAR-3 ovarian
[34] = tested on: OVCAR-4 ovarian
[35] = tested on: OVCAR-5 ovarian
[36] = tested on: OVCAR-8 ovarian
[37] = tested on: PC-3 prostate
[38] = tested on: RPMI-8226 leukemia
[39] = tested on: RXF 393 renal
[40] = tested on: SF-268 CNS
[41] = tested on: SF-295 CNS
[42] = tested on: SF-539 CNS
[43] = tested on: SK-MEL-2 melanoma
[44] = tested on: SK-MEL-28 melanoma
[45] = tested on: SK-MEL-5 melanoma
[46] = tested on: SK-OV-3 ovarian
[47] = tested on: SN12C renal
[48] = tested on: SNB-19 CNS
[49] = tested on: SNB-75 CNS
[50] = tested on: SR leukemia
[51] = tested on: SW-620 colon
[52] = tested on: T-47D breast
[53] = tested on: TK-10 renal
[54] = tested on: U251 CNS
[55] = tested on: UACC-257 melanoma
[56] = tested on: UACC-62 melanoma
[57] = tested on: UO-31 renal
[58] = tested on: EKVX NSCLC

SMILES: NC(=S)N/N=C\c1nccc2c(C(F)(F)C(F)(F)C(F)(F)F)cccc12
- GI50 [1]: 260 nM
- TGI [1]: 978 nM
- GI50 [2]: 464 nM
- TGI [2]: 2100 nM
- GI50 [3]: 97.8 nM
- TGI [3]: 1100 nM
- GI50 [4]: 58.2 nM
- TGI [4]: 1310 nM
- GI50 [5]: 313 nM
- TGI [5]: 11700 nM
- GI50 [6]: 183 nM
- TGI [6]: 1590 nM
- GI50 [7]: 42.7 nM
- TGI [7]: > 100000 nM
- GI50 [8]: 32.7 nM
- TGI [8]: 1900 nM
- GI50 [9]: 110 nM
- TGI [9]: 2920 nM
- GI50 [10]: 229 nM
- TGI [10]: 4480 nM
- GI50 [11]: 34.8 nM
- TGI [11]: 1450 nM
- GI50 [12]: 48.8 nM
- TGI [12]: > 100000 nM
- GI50 [13]: 64.9 nM
- TGI [13]: 665 nM
- GI50 [14]: 75.2 nM
- TGI [14]: 1250 nM
- GI50 [15]: 116 nM
- TGI [15]: 1440 nM
- GI50 [16]: 889 nM
- TGI [16]: 22600 nM
- GI50 [17]: 137 nM
- TGI [17]: 3620 nM
- GI50 [18]: 223 nM
- TGI [18]: 1930 nM
- GI50 [19]: 346 nM
- TGI [19]: > 100000 nM
- GI50 [20]: 82.5 nM
- TGI [20]: 8050 nM
- GI50 [21]: 72.5 nM
- TGI [21]: 1340 nM
- GI50 [22]: 66.2 nM
- TGI [22]: 589 nM
- GI50 [23]: 189 nM
- TGI [23]: 1430 nM
- GI50 [24]: 51.5 nM
- TGI [24]: 7540 nM
- GI50 [25]: 56.1 nM
- TGI [25]: 3000 nM
- GI50 [26]: 376 nM
- TGI [26]: > 31600 nM
- GI50 [27]: 54 nM
- TGI [27]: 8800 nM
- GI50 [28]: 162 nM
- TGI [28]: 1120 nM
- GI50 [29]: 422 nM
- TGI [29]: 12400 nM
- GI50 [30]: 61.9 nM
- TGI [30]: 1210 nM
- GI50 [31]: 211 nM
- TGI [31]: 756 nM
- GI50 [32]: 167 nM
- TGI [32]: 1650 nM
- GI50 [33]: 34.7 nM
- TGI [33]: 2220 nM
- GI50 [34]: 32.9 nM
- TGI [34]: 1490 nM
- GI50 [35]: 123 nM
- TGI [35]: 16800 nM
- GI50 [36]: 40.2 nM
- TGI [36]: 1590 nM
- GI50 [37]: 66.1 nM
- TGI [37]: > 22500 nM
- GI50 [38]: 264 nM
- GI50 [39]: 113 nM
- TGI [39]: 1260 nM
- GI50 [40]: 98.3 nM
- TGI [40]: 4220 nM
- GI50 [41]: 209 nM
- TGI [41]: 1700 nM
- GI50 [42]: 193 nM
- TGI [42]: 772 nM
- GI50 [43]: 388 nM
- TGI [43]: 3230 nM
- GI50 [44]: 250 nM
- TGI [44]: 3260 nM
- GI50 [45]: 99.6 nM
- TGI [45]: 563 nM
- GI50 [46]: 46.6 nM
- TGI [46]: 1430 nM
- GI50 [47]: 116 nM
- TGI [47]: 2310 nM
- GI50 [48]: 196 nM
- TGI [48]: 5210 nM
- GI50 [49]: 124 nM
- TGI [49]: 2870 nM
- GI50 [50]: 43.3 nM
- TGI [50]: > 32400 nM
- GI50 [51]: 53.8 nM
- TGI [51]: 24300 nM
- GI50 [52]: 36.9 nM
- TGI [52]: 1510 nM
- GI50 [53]: 78 nM
- TGI [53]: 2300 nM
- GI50 [54]: 56.9 nM
- TGI [54]: 1250 nM
- GI50 [55]: 120 nM
- TGI [55]: 575 nM
- GI50 [56]: 171 nM
- TGI [56]: 511 nM
- GI50 [57]: 90 nM
- TGI [57]: 892 nM

SMILES: O[C@H](CN1CC1)[C@@H](O)CN1CC1
- GI50 [1]: 3420 nM
- TGI [1]: 13500 nM
- GI50 [2]: 5240 nM
- TGI [2]: 21700 nM
- GI50 [3]: 7280 nM
- TGI [3]: > 100000 nM
- GI50 [4]: 499 nM
- TGI [4]: 14700 nM
- GI50 [5]: 12600 nM
- TGI [5]: 60900 nM
- GI50 [6]: 423 nM
- TGI [6]: 2850 nM
- GI50 [7]: 604 nM
- TGI [7]: > 100000 nM
- GI50 [8]: 12400 nM
- TGI [8]: 25500 nM
- GI50 [9]: 3250 nM
- TGI [9]: 26800 nM
- GI50 [58]: 15000 nM
- TGI [58]: 49600 nM
- GI50 [10]: 13800 nM
- TGI [10]: 51300 nM
- GI50 [11]: 5830 nM
- TGI [11]: 35600 nM
- GI50 [12]: 10600 nM
- TGI [12]: 88900 nM
- GI50 [13]: 1220 nM
- TGI [13]: > 100000 nM
- GI50 [14]: 3410 nM
- TGI [14]: 47200 nM
- GI50 [15]: 7620 nM
- TGI [15]: 67900 nM
- GI50 [16]: 20400 nM
- TGI [16]: 79200 nM
- GI50 [17]: 10200 nM
- TGI [17]: 26600 nM
- GI50 [18]: 10700 nM
- TGI [18]: 33300 nM
- GI50 [19]: 6840 nM
- TGI [19]: > 100000 nM
- GI50 [20]: 11700 nM
- TGI [20]: 28100 nM
- GI50 [21]: 2810 nM
- TGI [21]: 28400 nM
- GI50 [22]: 3770 nM
- TGI [22]: 22300 nM
- GI50 [24]: 1840 nM
- TGI [24]: > 100000 nM
- GI50 [25]: 24000 nM
- TGI [25]: 71600 nM
- GI50 [26]: 10500 nM
- TGI [26]: 29800 nM
- GI50 [27]: 860 nM
- TGI [27]: > 100000 nM
- GI50 [28]: 3170 nM
- TGI [28]: 26000 nM
- GI50 [29]: 3240 nM
- TGI [29]: > 100000 nM
- GI50 [30]: 496 nM
- TGI [30]: 22900 nM
- GI50 [31]: 8200 nM
- TGI [31]: 83300 nM
- GI50 [32]: 2800 nM
- TGI [32]: 53100 nM
- GI50 [33]: 13300 nM
- TGI [33]: 35200 nM
- GI50 [34]: 15400 nM
- TGI [34]: > 100000 nM
- GI50 [35]: 11200 nM
- TGI [35]: 48000 nM
- GI50 [36]: 3750 nM
- TGI [36]: > 100000 nM
- GI50 [37]: 15100 nM
- TGI [37]: > 100000 nM
- GI50 [38]: 6740 nM
- TGI [38]: > 100000 nM
- GI50 [39]: 7350 nM
- TGI [39]: 26100 nM
- GI50 [40]: 2600 nM
- TGI [40]: 30800 nM
- GI50 [41]: 382 nM
- TGI [41]: 1710 nM
- GI50 [42]: 2580 nM
- TGI [42]: 15500 nM
- GI50 [43]: 41000 nM
- TGI [43]: > 100000 nM
- GI50 [44]: 19500 nM
- TGI [44]: 84700 nM
- GI50 [45]: 13100 nM
- TGI [45]: 29200 nM
- GI50 [46]: 4910 nM
- TGI [46]: 29900 nM
- GI50 [47]: 1860 nM
- TGI [47]: > 100000 nM
- GI50 [48]: 6580 nM
- TGI [48]: > 100000 nM
- GI50 [49]: 2940 nM
- TGI [49]: 21400 nM
- GI50 [50]: 452 nM
- TGI [50]: > 100000 nM
- GI50 [51]: 4610 nM
- TGI [51]: > 100000 nM
- GI50 [52]: 7130 nM
- TGI [52]: 66600 nM
- GI50 [53]: 21300 nM
- TGI [53]: 77600 nM
- GI50 [54]: 5780 nM
- TGI [54]: 45600 nM
- GI50 [55]: 11600 nM
- TGI [55]: 89900 nM
- GI50 [56]: 3960 nM
- TGI [56]: > 100000 nM
- GI50 [57]: 2650 nM
- TGI [57]: 13100 nM
